Measured values published in patent publication US20140322344A1, “VACCINE PREPARATION FOR CANCER TREATMENT” (priority 2011, published 2014).

Tests used:
[1] = test system: CD8-positive killer T cells and CD4-positive helper T cells specific to MAGE-A4 epitopes; assay: Induction of antigen-specific T cells in immunized mice, spleen cells, intracellular cytokine staining (MAGE-A4 peptides); type: in vivo, BALB/c mice; conditions: s.c. twice at one week intervals, FIG. 1
Protocol: […] For administration, they were subcutaneously injected into the backs of the mice twice at one week intervals. For one dose of the hydrophobized polysaccharide-synthetic long peptide complex, a dosage corresponding to 0.1 mg of the synthetic long peptide complex was administered. Either the CpG oligo DNA or the poly-IC RNA as the immunopotentiating agent was subcutaneously injected at a dose of 0.05 mg proximal to the administration site of the hydrophobized polysaccharide-synthetic long peptide.
One week after the final administration, spleen cells were isolated from the treated mice in the following manner. The spleen was isolated from the mouse and washed in RPMI1640 medium to remove blood. The spleen was ground using a slide glass, and then the free cells were collected in RPMI1640 medium. After centrifugation (400×g, 5 min., 4° C.), the supernatant was removed, to which 2 mL of ACK solution was added to treat the cells for 1 minute. 18 mL of RPMI1640 medium was added and centrifugation (400×g, 5 min., 4° C.) was carried out. […] After the number of the cells was counted, the cells were suspended in RPMI1640 medium containing 10% fetal bovine serum (FBS) so that the cell concentration was 1×10^7 cells/mL. […]
The cells were analyzed with a flow cytometer (FACS Canto II, BD Biosciences Company) using the associated analysis software (FACSDiva).

[2] = test system: mouse colon cancer cells CT 26 into which the MAGE-A4 gene was stably introduced; assay: Tumor rejection test, CT26/MAGE-A4; type: in vivo, BALB/c mice; conditions: co-administered s.c. with CpG oligo DNA 7 days before tumor implantation; p<0.0001; FIG. 7
Protocol: A mouse colon cancer cell CT26 cell line into which the MAGE-A4 gene was stably introduced or a mouse fibrosarcoma CMS5a cell line which expresses mERK2 was subcutaneously implanted in the following manner. The CT26 cell line or CMS5a cell line, which had been cultured in a T75 flask (Nunc Co., Ltd.), was washed with PBS; then the cells were removed with PBS containing 0.5% trypsin and collected in RPMI1640 medium containing 10% FBS. After centrifugation (400×g, 5 min., 4° C.), the supernatant was removed, washed twice with RPMI1640 medium, then re-suspended in RPMI1640 medium at a concentration of 1×10^6 cells/100 μL, and subcutaneously implanted into BALB/c mice in an amount of 100 μL/individual. Subsequently, their tumor areas were measured over time. A comparison of the data in the tumor rejection test was performed according to Student's t-test using MS Excel (Microsoft).

Q: “MAGE-A4 p264:40: synthetic long peptide, 40 aa, from MAGE-A4, SEQ ID NO: 1: GSNPARYEFLWGPRALAETSYVKVLEHVVRVNARVRIAYP (Human; MAGE-A4 p26440)” was tested. Which “induction of killer T cells and helper T cells specific to the peptide” value ([1]; administered alone, no immunopotentiating agent) did it give?
A: are not induced

Q: What about the “induction of antigen-specific killer T cells and helper T cells” value ([1]; co-administered with CpG oligo DNA) of the same substance?
A: the intended T cells are not induced

Q: And the “tumor growth inhibition as compared to PBS administration group” value [2]?
A: significant inhibition
